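Test compounds were applied to cells in 96-well plates for 48 hours at 5 doses. TGI: total growth inhibition.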
Tests used:
Assay in all cases: DTP human tumour cell line panel, 48 h
[1] = tested on: UO-31 renal
[2] = tested on: KM12 colon
[3] = tested on: MDA-MB-231 breast
[4] = tested on: RXF 393 renal
[5] = tested on: COLO 205 colon
[6] = tested on: SW-620 colon
[7] = tested on: SF-295 CNS
[8] = tested on: CAKI-1 renal
[9] = tested on: OVCAR-5 ovarian
[10] = tested on: HOP-92 NSCLC
[11] = tested on: HCC-2998 colon
[12] = tested on: NCI-H460 lung
[13] = tested on: U251 CNS
[14] = tested on: SF-539 CNS
[15] = tested on: BT-549 breast
[16] = tested on: T-47D breast
[17] = tested on: HL-60(TB) leukemia
[18] = tested on: SNB-19 CNS
[19] = tested on: HCT-15 colon
[20] = tested on: TK-10 renal
[21] = tested on: SK-OV-3 ovarian
[22] = tested on: RPMI-8226 leukemia
[23] = tested on: NCI-H23 lung
[24] = tested on: A549 NSCLC
[25] = tested on: NCI-H226 lung
[26] = tested on: OVCAR-3 ovarian
[27] = tested on: UACC-257 melanoma
[28] = tested on: HS 578T breast
[29] = tested on: DU-145 prostate
[30] = tested on: MDA-N
[31] = tested on: MCF7 breast
[32] = tested on: CCRF-CEM leukemia
[33] = tested on: SK-MEL-28 melanoma
[34] = tested on: HCT-116 colon
[35] = tested on: SF-268 CNS
[36] = tested on: 786-0 renal
[37] = tested on: EKVX NSCLC
[38] = tested on: PC-3 prostate
[39] = tested on: SR leukemia
[40] = tested on: SNB-75 CNS
[41] = tested on: M14 melanoma
[42] = tested on: OVCAR-8 ovarian
[43] = tested on: MALME-3M melanoma
[44] = tested on: HT29 colon
[45] = tested on: K-562 leukemia
[46] = tested on: NCI-H522 lung
[47] = tested on: MOLT-4 leukemia
[48] = tested on: NCI/ADR-RES ovarian
[49] = tested on: UACC-62 melanoma
[50] = tested on: SK-MEL-2 melanoma
[51] = tested on: ACHN renal
[52] = tested on: SN12C renal
[53] = tested on: SK-MEL-5 melanoma
[54] = tested on: IGROV1 ovarian
[55] = tested on: OVCAR-4 ovarian
[56] = tested on: MDA-MB-435
[57] = tested on: LOX IMVI melanoma
[58] = tested on: HOP-62 NSCLC
[59] = tested on: A498 renal

Cc1ccc(S(=O)(=O)c2c(O)c3ccc(O)c(C)c3oc2=O)cc1
TGI [1]: > 100 µM | TGI [2]: > 100 µM | TGI [3]: > 100 µM | TGI [4]: > 100 µM | TGI [5]: > 100 µM | TGI [6]: > 100 µM | TGI [7]: > 100 µM | TGI [8]: > 100 µM | TGI [9]: > 100 µM | TGI [10]: > 100 µM | TGI [11]: > 100 µM | TGI [12]: > 100 µM | TGI [13]: > 100 µM | TGI [14]: > 100 µM | TGI [15]: > 100 µM | TGI [16]: > 100 µM | TGI [17]: > 100 µM | TGI [18]: > 100 µM | TGI [19]: > 100 µM | TGI [20]: > 100 µM | TGI [21]: > 100 µM | TGI [22]: > 100 µM | TGI [23]: > 100 µM | TGI [24]: > 100 µM | TGI [25]: > 100 µM | TGI [26]: > 100 µM | TGI [27]: > 100 µM | TGI [28]: > 100 µM | TGI [29]: > 100 µM | TGI [30]: > 100 µM | TGI [31]: > 100 µM | TGI [32]: > 100 µM | TGI [33]: > 100 µM | TGI [34]: > 100 µM | TGI [35]: > 100 µM | TGI [36]: > 100 µM | TGI [37]: > 100 µM | TGI [38]: > 100 µM | TGI [39]: > 100 µM | TGI [40]: > 100 µM | TGI [41]: > 100 µM | TGI [42]: > 100 µM | TGI [43]: > 100 µM | TGI [44]: > 100 µM | TGI [45]: > 100 µM | TGI [46]: > 100 µM | TGI [47]: > 100 µM | TGI [48]: > 100 µM | TGI [49]: > 100 µM | TGI [50]: > 100 µM | TGI [51]: > 100 µM | TGI [52]: > 100 µM | TGI [53]: > 100 µM | TGI [54]: > 100 µM | TGI [55]: > 100 µM | TGI [56]: > 100 µM

C=C1C(=O)O[C@@H]2C[C@@]3(C)CC(=O)C=C(C)[C@@H]3C[C@H]12
TGI [1]: 24.1 µM | TGI [2]: 37.9 µM | TGI [57]: 38.1 µM | TGI [3]: 34 µM | TGI [4]: 18.2 µM | TGI [5]: 11.4 µM | TGI [6]: 22.6 µM | TGI [7]: > 100 µM | TGI [8]: 21.6 µM | TGI [9]: 32.9 µM | TGI [10]: 55 µM | TGI [11]: 28.1 µM | TGI [13]: 39.1 µM | TGI [14]: 36.2 µM | TGI [15]: 27.6 µM | TGI [16]: 28.3 µM | TGI [17]: 4.08 µM | TGI [18]: 50 µM | TGI [19]: 15.2 µM | TGI [20]: 25.7 µM | TGI [21]: > 100 µM | TGI [22]: 5.45 µM | TGI [23]: 29.9 µM | TGI [24]: > 100 µM | TGI [25]: > 100 µM | TGI [26]: 19.9 µM | TGI [27]: 41.7 µM | TGI [28]: 99.7 µM | TGI [29]: 16.1 µM | TGI [30]: 17.2 µM | TGI [31]: 14.9 µM | TGI [32]: > 100 µM | TGI [33]: 41.9 µM | TGI [34]: 20.2 µM | TGI [35]: 42.5 µM | TGI [36]: 31.5 µM | TGI [37]: 28.8 µM | TGI [38]: 36.3 µM | TGI [40]: 39.6 µM | TGI [41]: 32.7 µM | TGI [42]: 42.9 µM | TGI [43]: 21.7 µM | TGI [58]: 34.4 µM | TGI [44]: 24.6 µM | TGI [46]: 20.3 µM | TGI [47]: 21.8 µM | TGI [48]: 40.4 µM | TGI [49]: 30.4 µM | TGI [50]: 29.8 µM | TGI [51]: 8.69 µM | TGI [52]: 26.2 µM | TGI [53]: 22.9 µM | TGI [54]: 32.2 µM | TGI [55]: 23.2 µM | TGI [56]: 30.5 µM

Cc1ccc2c(c1C)CC1(Cc3c(C)ccc(C)c3C1=O)C2=O (configuration not stated)
TGI [1]: > 100 µM | TGI [2]: > 100 µM | TGI [3]: > 100 µM | TGI [4]: > 100 µM | TGI [5]: > 100 µM | TGI [6]: > 100 µM | TGI [7]: > 100 µM | TGI [8]: > 100 µM | TGI [9]: > 100 µM | TGI [10]: > 100 µM | TGI [11]: > 100 µM | TGI [12]: > 100 µM | TGI [13]: > 100 µM | TGI [14]: > 100 µM | TGI [15]: > 100 µM | TGI [16]: > 100 µM | TGI [17]: > 100 µM | TGI [18]: > 100 µM | TGI [19]: > 100 µM | TGI [20]: > 100 µM | TGI [21]: > 100 µM | TGI [22]: > 100 µM | TGI [23]: > 100 µM | TGI [24]: > 100 µM | TGI [25]: > 100 µM | TGI [59]: > 100 µM | TGI [27]: > 100 µM | TGI [28]: > 100 µM | TGI [29]: > 100 µM | TGI [30]: > 100 µM | TGI [31]: > 100 µM | TGI [32]: > 100 µM | TGI [33]: > 100 µM | TGI [34]: > 100 µM | TGI [35]: > 100 µM | TGI [36]: > 100 µM | TGI [37]: > 100 µM | TGI [40]: > 100 µM | TGI [41]: > 100 µM | TGI [42]: > 100 µM | TGI [43]: > 100 µM | TGI [44]: > 100 µM | TGI [45]: > 100 µM | TGI [46]: > 100 µM | TGI [47]: > 100 µM | TGI [48]: > 100 µM | TGI [49]: > 100 µM | TGI [51]: > 100 µM | TGI [52]: > 100 µM | TGI [53]: > 100 µM | TGI [54]: > 100 µM | TGI [55]: > 100 µM | TGI [56]: > 100 µM

O=C(/C=C\Nc1ccccc1O)C(F)(F)F
TGI [1]: > 100 µM | TGI [2]: > 100 µM | TGI [57]: > 100 µM | TGI [3]: > 100 µM | TGI [4]: > 100 µM | TGI [5]: 71.1 µM | TGI [6]: > 100 µM | TGI [7]: > 100 µM | TGI [8]: > 100 µM | TGI [9]: > 100 µM | TGI [10]: > 100 µM | TGI [11]: > 100 µM | TGI [12]: > 100 µM | TGI [13]: > 100 µM | TGI [14]: > 100 µM | TGI [15]: > 100 µM | TGI [16]: > 100 µM | TGI [17]: 67.8 µM | TGI [18]: > 100 µM | TGI [19]: > 100 µM | TGI [20]: > 100 µM | TGI [21]: > 100 µM | TGI [22]: > 100 µM | TGI [23]: > 100 µM | TGI [24]: > 100 µM | TGI [25]: > 100 µM | TGI [26]: 87 µM | TGI [27]: > 100 µM | TGI [28]: > 100 µM | TGI [29]: > 100 µM | TGI [30]: > 100 µM | TGI [31]: > 100 µM | TGI [32]: > 100 µM | TGI [33]: > 100 µM | TGI [34]: > 100 µM | TGI [35]: > 100 µM | TGI [36]: > 100 µM | TGI [37]: > 100 µM | TGI [38]: > 100 µM | TGI [39]: > 100 µM | TGI [40]: > 100 µM | TGI [41]: > 100 µM | TGI [42]: > 100 µM | TGI [43]: 91.3 µM | TGI [58]: > 100 µM | TGI [44]: > 100 µM | TGI [45]: > 100 µM | TGI [46]: > 100 µM | TGI [47]: > 100 µM | TGI [48]: > 100 µM | TGI [49]: > 100 µM | TGI [50]: > 100 µM | TGI [51]: > 100 µM | TGI [52]: > 100 µM | TGI [53]: 53.5 µM | TGI [54]: > 100 µM | TGI [55]: > 100 µM | TGI [56]: > 100 µM

From PubChem BioAssay (NCI)
